We go through 2 compounds from patent publication US5994406A, “Geminal cationic surfactants of the type Nα Nω bis (Nα-acyl-arginin) α,ω diamino alkyl dichlorohydrates as antimicrobial agents” (Consejo Superior Investigaciones Cientificas, priority 1995, dated 1999).

Data set [1] is described as follows: surface activity: surface tension at the critical micellar concentration, aqueous solution 25° C. It counts as physicochemical. Also on record: unit not given here. As for the experimental part:
(§1) The main properties of the surface activity in aqueous solution at 25° C. which define the practical interest of a surfactant; surface stress to the critical micellar concentration (γ) and critical micellar concentration (CMC) have been determined according to conventional methods. Likewise, the antimicrobial activity has been evaluated based on the inhibiting minimum concentration values (MIC) expressed in μg/mL following the most common methodologies. Table 1 indicates the values of […], CMC and MIC for two dimers of the same homologeous series; C4 (KA)2 (X=8,n=4) and C4 (LA)2 (X=10, n=4). For the purpose of comparisons in this same table the same values are indicated for the monocatenary compounds KAM and LAM respectively.

The test system of data set [2] is Bacilus subtilis ATCC 6633. As to the kind of experiment: antimicrobial activity, MIC, organism 4. It counts as cell-based. The procedure: as §1
4. Bacilus subtilis ATCC 6633

The subject of data set [3] is Micrococcus luteus ATCC 9341. In words: antimicrobial activity, MIC, organism 7. It counts as cell-based. As for the experimental part:
as §1
7. Micrococcus luteus ATCC 9341

A short description of data set [4]: critical micellar concentration (CMC), aqueous solution 25° C. It counts as physicochemical. The procedure:
as §1

Data set [5] has as its system Alcaligenes faecalis ATTCC 8750. As to the kind of experiment: antimicrobial activity, minimum inhibitory concentration (MIC), organism 1. In kind it is cell-based. As for the experimental part: as §1
1. Alcaligenes faecalis ATTCC 8750

In data set [6] the test system is Staphylococcus epidermidis ATCC 1551. In words: antimicrobial activity, MIC, organism 6. In kind it is cell-based. The procedure:
as §1
6. Staphylococcus epidermidis ATCC 1551

Data set [7] deals with Streptococcus faecalis ATCC 10541. In words: antimicrobial activity, MIC, organism 3. It counts as cell-based. The procedure: as §1
3. Streptococcus faecalis ATCC 10541

For data set [8], the system named is Bordeltella bronchiseptica ATCC. In words: antimicrobial activity, MIC, organism 2. It counts as cell-based. The procedure: as §1
2. Bordeltella bronchiseptica ATCC

Data set [9] deals with Staphylococcus aereus ATCC 25178. In words: antimicrobial activity, MIC, organism 5. In kind it is cell-based. As for the experimental part: as §1
5. Staphylococcus aereus ATCC 25178

Converted amounts (≈) assume the structure as drawn. Read-outs that look alike come from different tables or passages of the source. Some results are limits rather than exact numbers.

By MIC is commonly meant the lowest concentration found to suppress growth. With `CCCCCCCCCCCC(=O)N[C@@H](CCCN=C(N)N)C(=O)OC` [LAM], the “surface stress (γ) at the critical micellar concentration” value in data set [1] came out at 30.0. Also, the MIC in data set [2] is above 128 µg/mL; in [3], above 128 µg/mL; in data set [5] it was 64 µg/mL (≈ 173 µM); in data set [6] it was 64 µg/mL (≈ 173 µM); in [7] it was 32 µg/mL (≈ 86.4 µM); in data set [8] it was above 128 µg/mL. In data set [9], this compound displayed an MIC of 64 µg/mL (≈ 173 µM). In data set [4], this compound gave a CMC of 0.0037 mM.
In the case of `CCCCCCCCCC(=O)N[C@@H](CCCNC(=N)N)C(=O)NCCCCNC(=O)[C@H](CCCNC(=N)N)NC(=O)CCCCCCCCC` [C4 (KA)2, Nα, Nω, Bis (Nα -Decanoilarginin) α,ω-Diaminobuthylamide], the “surface stress (γ) at the critical micellar concentration” value in [1] came out at 25. Also, the MIC in [2] (read-out: MIC) stood at 8 µg/mL (≈ 11.3 µM); in data set [3] (ATCC9341, read-out: MIC), 8 µg/mL (≈ 11.3 µM); in data set [5] (ATTCC8750, read-out: MIC), 64 µg/mL (≈ 90.3 µM); in data set [6] (ATCC1551, read-out: MIC), 8 µg/mL (≈ 11.3 µM); in [7] (Enterococcus faecalis, ATCC10541, read-out: MIC), 16 µg/mL (≈ 22.6 µM); in data set [8] (read-out: MIC), 32 µg/mL (≈ 45.1 µM). For the same compound, the MIC in [9] (ATCC25178, read-out: MIC) amounted to 8 µg/mL (≈ 11.3 µM). The CMC in [4] was found to be 7.8e-06 mM.
